In patent publication US20260151358A1, “METHODS OF TREATING, AMELIORATING, AND/OR PREVENTING STRESS-RELATED DISORDER” (Yale University, priority 2022, published 2026):
“Also recorded” adds a separate entry of the source.

Assays:
dlPFC Delay cells = test: Single unit recording with iontophoresis of dlPFC Delay cells in monkeys performing the ODR working memory task; assay type: in vivo, rhesus macaques; conditions: for effect on the S-Bay (LTCC agonist)-induced reduction of Delay cell firing: pretreatment; for PFC neuronal firing (Delay cell firing): FIGS. 9A-9B, monkeys performing a working memory task; for delay-related firing for nonpreferred directions / delay-related firing of dlPFC Delay cells for the neurons' preferred direction / d′ measure of spatial tuning: iontophoresis, vs control, ODR task
Source text: The physiological contributions of LTCC and β1-AR signaling were examined at the cellular level in rhesus macaques performing the oculomotor delayed response (ODR) spatial working memory task (FIG. 4A) to determine how they influence the neuronal firing needed for working memory and higher cognition. Recordings were made from the caudal principal sulcus (FIG. 4B) using an iontophoretic electrode (FIG. 4C) that allows minute ejection of charged compounds onto the neuron being recorded. The dlPFC contains “Delay cells” that are able to fire across the length of the delay period while the subject is remembering a location (FIG. 4D); this persistent firing is spatially tuned for the neuron's preferred direction, thus representing visual space in working memory. The effects of β1-AR-Cav1.2 signaling on dlPFC “Delay cell” firing were tested using single unit recordings coupled with iontophoresis in adult and aged rhesus monkeys performing the ODR task using repeated measures analyses. Aged monkeys have naturally-occurring calcium dysregulation, and thus are particularly useful for examining agents that reduce calcium signaling. As there are no compounds selective for Cav1.2, these experiments used agents targeting all LTCCs (i.e. Cav1.2 and Cav1.3 in dlPFC).

test animals = test: Working memory (cognition) after β1-AR or β2-AR blockade (FIG. 11); assay type: in vivo
rhesus monkeys = test: Stress-induced (FG7142) working memory deficits, spatial delayed response task, systemic administration; assay type: in vivo; conditions: for stress-induced cognitive deficits: monkeys; for stress-induced working memory (cognitive) deficits: pretreatment, FG7142-treated animals, delayed response task; for effect of the selected dose alone on working memory performance: without stressor
Source text: The final experiments examined whether systemic administration of compounds that block β1-AR or LTCCs prevent stress-induced working memory deficits in rhesus monkeys (n=6), as predicted by the physiological data. This experiment used the LTCC blocker, nimodipine, which normalizes dlPFC working memory in human subjects carrying the CACNA1C allele that increases channel expression. The current experiments tested the effects of β1-AR or LTCC blockade on stress-induced working memory deficits in adult monkeys performing the spatial delayed response task in a Wisconsin General Test Apparatus. The anxiogenic inverse benzodiazepine agonist, FG7142, was used as a pharmacological stressor, as it produces a classic stress response including cortisol release in humans and monkeys, yet allows precise dosing to produce a mild response that impairs accuracy without impeding motivation for testing for food rewards. […]; post-hoc comparisons: vehicle+vehicle vs. vehicle+stress, p=0.001; […]; post-hoc comparisons: vehicle+vehicle vs. vehicle+stress, p=0.0009; vehicle+stress vs. nimodipine+stress, p=0.0006).

dlPFC function = conditions: published data, Li et al. 1994; cited from earlier work
[1] = target: β3-adrenergic receptor subtype (β3-AR) (Homo sapiens, UniProt P13945); conditions: cited from earlier work
β3-adrenergic receptor subtype (β3-AR), sequence (P13945 whole entry): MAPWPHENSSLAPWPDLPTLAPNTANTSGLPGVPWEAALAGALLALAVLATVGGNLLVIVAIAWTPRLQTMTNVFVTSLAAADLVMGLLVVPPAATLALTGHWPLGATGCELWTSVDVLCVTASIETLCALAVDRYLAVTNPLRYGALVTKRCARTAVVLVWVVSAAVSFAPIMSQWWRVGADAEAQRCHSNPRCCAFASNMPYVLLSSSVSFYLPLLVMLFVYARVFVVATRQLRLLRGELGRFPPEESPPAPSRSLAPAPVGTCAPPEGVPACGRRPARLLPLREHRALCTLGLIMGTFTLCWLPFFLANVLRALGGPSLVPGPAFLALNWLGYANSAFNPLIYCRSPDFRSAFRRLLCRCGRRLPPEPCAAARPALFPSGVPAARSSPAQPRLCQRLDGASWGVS

Compound: CCN(c1ccccc1)c1cc(NC)[n+](C)c(C)n1 [ZD7288, N-ethyl-1,6-dihydro-1,2-dimethyl-6-(methylimino)-N-phenyl-4-pyrimidinamine]
- effect on the S-Bay (LTCC agonist)-induced reduction of Delay cell firing (dlPFC Delay cells): blocked

Compound: OC(CNCC(O)C1CCc2cc(F)ccc2O1)C1CCc2cc(F)ccc2O1 (centres unmarked) [nebivolol, 1-(6-fluoro-3,4-dihydro-2H-chromen-2-yl)-2-[[2-(6-fluoro-3,4-dihydro-2H-chromen-2-yl)-2-hydroxyethyl]amino]ethanol]
- cognition (working memory) (test animals; 1.0 mg/kg, FIG. 11): improved cognition
- stress-induced cognitive deficits (rhesus monkeys; 0.01 mg/kg, FIG. 10B): blocked stress-induced cognitive deficits
- stress-induced cognitive deficits (rhesus monkeys; 0.1 mg/kg, FIG. 10A): blocked stress-induced cognitive deficits
- stress-induced working memory (cognitive) deficits (rhesus monkeys): prevented stress-induced cognitive deficits

Compound: CC(C)NCC(O)COc1cccc2ccccc12 (racemic) [propranolol, (RS)-1-(1-methylethylamino)-3-(1-naphthyloxy)propan-2-ol]
- effect on dlPFC function (dlPFC function): little effect

Compound: O=C(NCCNCC(O)COc1ccc(O)cc1)N1CCOCC1 (racemic) [xamoterol, (RS)—N-(2-{[2-hydroxy-3-(4-hydroxyphenoxy)propyl]amino}ethyl)morpholine-4-carboxamide]
- PFC neuronal firing (Delay cell firing) (dlPFC Delay cells): reduces PFC neuronal firing
- delay-related firing for nonpreferred directions (dlPFC Delay cells): not for nonpreferred directions
- delay-related firing of dlPFC Delay cells for the neurons' preferred direction (dlPFC Delay cells): reduced delay-related firing
- d′ measure of spatial tuning (dlPFC Delay cells): significant reduction

Compound: c1ccc2c(c1)CCC[C@H]2Nc1nc2ccccc2[nH]1 [NS8593, N-[(1R)-1,2,3,4-tetrahydro-1-naphthalenyl]-1H-benzimidazol-2-amine]
- delay-related firing for nonpreferred directions (dlPFC Delay cells): smaller increase
- delay-related firing of dlPFC Delay cells for the neurons' preferred direction (dlPFC Delay cells): significantly increased delay firing
- d′ measure of spatial tuning (dlPFC Delay cells): significant increase
- effect on the S-Bay (LTCC agonist)-induced reduction of Delay cell firing (dlPFC Delay cells): blocked

Compound: COC(=O)C1=C(C)NC(C)=C([N+](=O)[O-])[C@H]1c1ccccc1C(F)(F)F [(S)-(−)-Bay-K 8644, (−)-methyl 2,6-dimethyl-5-nitro-4 (S)-[2-(trifluoromethyl)phenyl]-1,4-dihydropyridine-3-carboxylate]
- delay-related firing of dlPFC Delay cells for the neurons' preferred direction (dlPFC Delay cells): reduced delay-related firing
- d′ measure of spatial tuning (dlPFC Delay cells): decreased

Compound: CNC(=O)c1cc2c(cn1)[nH]c1ccccc12 [FG7142]
- working memory performance compared to vehicle+vehicle control (rhesus monkeys; vehicle pretreatment + pharmacological stressor, n=6): significantly impaired performance

Compound: CC(C)NCC(O)COc1ccc(CCOCC2CC2)cc1 (centres unmarked) [betaxolol, 1-{4-[2-(cyclopropylmethoxy)ethyl]phenoxy}-3-(propan-2-ylamino)propan-2-ol]
- pKD value for β3-AR [1]: 5.97±0.08
- stress-induced working memory (cognitive) deficits (rhesus monkeys): prevented working memory deficits; also recorded: blocked stress-induced cognitive deficits
- effect of the selected dose alone on working memory performance (rhesus monkeys): no effect on their own
- delay-related firing of dlPFC Delay cells for the neurons' preferred direction (dlPFC Delay cells): enhanced delay-related firing
- d′ measure of spatial tuning (dlPFC Delay cells): increased

Compound: COCCOC(=O)C1=C(C)NC(C)=C(C(=O)OC(C)C)C1c1cccc([N+](=O)[O-])c1 (centres unmarked) [nimodipine, 3-(2-methoxyethyl) 5-propan-2-yl 2,6-dimethyl-4-(3-nitrophenyl)-1,4-dihydropyridine-3,5-dicarboxylate]
- stress-induced working memory (cognitive) deficits (rhesus monkeys): prevented working memory deficits
- effect of the selected dose alone on working memory performance (rhesus monkeys): no effect on their own

Compound: CC[C@H](NC(C)C)[C@H](O)c1ccc(O)c2[nH]c(=O)ccc12 (relative stereo) [procaterol, (±)-(1R,2S)-rel-8-hydroxy-5-[1-hydroxy-2-(isopropylamino)butyl]-quinolin-2 (1H)-one]
- PFC neuronal firing (Delay cell firing) (dlPFC Delay cells): increases delay cell firing

Compound: Cc1ccc(OCC(O)C(C)NC(C)C)c2c1CCC2 (centres unmarked) [IC1118551, 3-(isopropylamino)-1-[(7-methyl-4-indanyl)oxy]butan-2-ol]
- cognition (working memory) (test animals; 0.1 mg/kg, FIG. 11, n=1): impaired cognition
